Data set [1] has as its target T1, SRTF1 (Pimelobacter simplex, UniProt A0A0A1DUF2).
T1 construct: gene KR76_27130; assembled on quantum dots for FRET
T1 sequence (A0A0A1DUF2 1-189): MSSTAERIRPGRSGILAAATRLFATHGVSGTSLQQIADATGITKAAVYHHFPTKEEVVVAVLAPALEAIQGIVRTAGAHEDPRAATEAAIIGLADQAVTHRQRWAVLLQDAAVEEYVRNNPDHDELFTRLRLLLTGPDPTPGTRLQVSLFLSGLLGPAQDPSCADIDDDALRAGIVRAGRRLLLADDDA
Briefly: QD-TF-FRET, ligand-induced release of Cy5-labelled operator DNA. The format is biochemical. Particulars: sensor 3: QD/TF/DNA ratio 1:1:18, operator with 2 mutated bases in one half of palindrome, HEPES, RT; allosteric.

The target of data set [2] is T2, SRTF1 (Pimelobacter simplex ATCC 6946, UniProt A0A0A1DUF2 1-189).
T2 sequence: T1 sequence (A0A0A1DUF2 1-189)
Description: BLI; no steroid; BLI: 28 mM Tris-HCl pH 8.0, 5 mM MgCl (so in the source), 4.25% glycerol, 25 mM NaCl, 1.67 mg/mL BSA, 30 C; QD-FRET: 1x HEPES with binding buffer (5x: 25 mM MgCl2, 25% glycerol, 250 mg/L salmon sperm DNA, 0.1 M Tris-HCl), RT. Particulars: protein: recombinant; tags: C-terminal 6xHis; chain copies: 2; label: 5' biotin on strand 1; blunt. Background: Biolayer interferometry detects binding as a change in optical thickness at a sensor tip.

As a reminder, the IC50 is the concentration needed to halve the response being measured. With `C[C@]12CCC(=O)C=C1CC[C@@H]1[C@@H]2[C@@H](O)C[C@]2(C=O)[C@@H](C(=O)CO)CC[C@@H]12` [ALD, aldosterone], the IC50 in data set [1] was 312 ± 42 nM.

B1: BLI-SCRM (dsDNA)
DNA 1: AAATTGTCCCGGGCCTTTCTCCGCGCGTCTGGTAACCCTTAGGATTACTC
DNA 2: GAGTAATCCTAAGGGTTACCAGACGCGCGGAGAAAGGCCCGGGACAATTT
As to B1, in data set [2], the binding result was “no binding”.

(Values after PMC7062782, “A progesterone biosensor derived from microbial screening” (Nature Communications, 2020).)
